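Test compounds were applied to cells in 96-well plates for 48 hours at 5 doses. At the GI50, growth is halved.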 Calls of active or inactive are those of the source. No stated cut-off is given here; in the data, active = GI50 up to about 1.1 µM and inactive = higher.
Assays:
Assay in all cases: growth of human tumour cells (NCI), 48 h
A549 = system: A549
CAKI-1 = system: CAKI-1
HCC 2998 = system: HCC 2998
HCT-116 = system: HCT-116
K562 = system: K562
MDA-MB-231 = system: MDA-MB-231
MDA-N = system: MDA-N
NCI-H226 = system: NCI-H226
NCI-H23 = system: NCI-H23
OVCAR-8 = system: OVCAR-8
PC-3 = system: PC-3
SF-295 = system: SF-295
SK-MEL-2 = system: SK-MEL-2
SK-MEL-5 = system: SK-MEL-5
SNB-19 = system: SNB-19
SNB-75 = system: SNB-75
SR = system: SR
T47D = system: T47D
UACC-257 = system: UACC-257
UO-31 = system: UO-31

Compound | GI50 (A549) | GI50 (CAKI-1) | GI50 (HCC 2998) | GI50 (HCT-116) | GI50 (K562) | GI50 (MDA-MB-231) | GI50 (MDA-N) | GI50 (NCI-H226) | GI50 (NCI-H23) | GI50 (OVCAR-8) | GI50 (PC-3) | GI50 (SF-295) | GI50 (SK-MEL-2) | GI50 (SK-MEL-5) | GI50 (SNB-19) | GI50 (SNB-75) | GI50 (SR) | GI50 (T47D) | GI50 (UACC-257) | GI50 (UO-31)
Cc1cc(NC(=O)NC(=O)c2ccccc2NC(=O)CN(C)C)ccc1Oc1ncc(Br)cn1 | 3.54 µM (inactive) | 3.68 µM (inactive) | 1.22 µM (inactive) | 1.85 µM (inactive) | 2 µM (inactive) | 1.95 µM (inactive) | 0.221 µM (active) | 6.76 µM (inactive) | 4.67 µM (inactive) | 6.84 µM (inactive) | 1.08 µM (active) | 0.748 µM (active) | 10.4 µM (inactive) | 1.45 µM (inactive) | 9.77 µM (inactive) | 1.89 µM (inactive) | 3.24 µM (inactive) | > 100 µM (inactive) | 57.5 µM (inactive) | 8.55 µM (inactive)
CCOC(=O)C(=CNc1ccc(S(N)(=O)=O)cc1)C(=O)OCC | > 100 µM (inactive) | > 100 µM (inactive) | > 100 µM (inactive) | > 100 µM (inactive) | > 100 µM (inactive) | > 100 µM (inactive) | > 100 µM (inactive) | > 100 µM (inactive) | > 100 µM (inactive) | > 100 µM (inactive) | > 100 µM (inactive) | > 100 µM (inactive) | > 100 µM (inactive) | > 100 µM (inactive) | > 100 µM (inactive) | > 100 µM (inactive) | > 100 µM (inactive) | > 100 µM (inactive) | > 100 µM (inactive) | > 100 µM (inactive)
NNC(=O)Nc1nc2ccc(NN)cc2[nH]1 | 74 µM (inactive) | 41.7 µM (inactive) | 18.5 µM (inactive) | 32.8 µM (inactive) | 18.7 µM (inactive) | 51.9 µM (inactive) | 28.2 µM (inactive) | 20.2 µM (inactive) | 44.1 µM (inactive) | 54 µM (inactive) | 34.4 µM (inactive) | 47.2 µM (inactive) | 44 µM (inactive) | 22.9 µM (inactive) | 58.5 µM (inactive) | 25.6 µM (inactive) | 19.5 µM (inactive) | 26.4 µM (inactive) | 31.8 µM (inactive) | 60.5 µM (inactive)
N#CC(NCc1cccc(CNC(C#N)c2ccccc2)c1)c1ccccc1 (stereo not given) | 28.7 µM (inactive) | > 100 µM (inactive) | 14.9 µM (inactive) | 23.8 µM (inactive) | 17.1 µM (inactive) | 26.2 µM (inactive) | 37.2 µM (inactive) | > 100 µM (inactive) | > 100 µM (inactive) | 67 µM (inactive) | 42.9 µM (inactive) | 18.7 µM (inactive) | > 100 µM (inactive) | 42.3 µM (inactive) | 64.4 µM (inactive) | 28.9 µM (inactive) | 25.8 µM (inactive) | 48.6 µM (inactive) | 59.6 µM (inactive) | 94.4 µM (inactive)
CN1CCC(n2[nH]c(-c3ccccc3)c(Cc3ccccc3)c2=O)CC1 [BENZPIPERYLON] | > 100 µM (inactive) | > 100 µM (inactive) | > 100 µM (inactive) | 75.9 µM (inactive) | 42.2 µM (inactive) | > 100 µM (inactive) | > 100 µM (inactive) | > 100 µM (inactive) | > 100 µM (inactive) | > 100 µM (inactive) | > 100 µM (inactive) | > 100 µM (inactive) | > 100 µM (inactive) | > 100 µM (inactive) | > 100 µM (inactive) | 29.7 µM (inactive) | 33.3 µM (inactive) | > 100 µM (inactive) | > 100 µM (inactive) | 88.9 µM (inactive)
Cn1c2ccccc2c2c3c(c4c5ccccc5n(C)c4c21)C(=O)N(Cc1ccccc1)C3=O | 90.2 µM (inactive) | > 100 µM (inactive) | > 100 µM (inactive) | > 100 µM (inactive) | > 100 µM (inactive) | > 100 µM (inactive) | > 100 µM (inactive) | > 100 µM (inactive) | > 100 µM (inactive) | > 100 µM (inactive) | > 100 µM (inactive) | > 100 µM (inactive) | > 100 µM (inactive) | 77.4 µM (inactive) | > 100 µM (inactive) | > 100 µM (inactive) | 31.8 µM (inactive) | > 100 µM (inactive) | > 100 µM (inactive) | > 100 µM (inactive)
CCN(CC)C1=Nc2ccccc2-n2ccnc2C1 | > 100 µM (inactive) | > 100 µM (inactive) | > 100 µM (inactive) | > 100 µM (inactive) | > 100 µM (inactive) | > 100 µM (inactive) | > 100 µM (inactive) | > 100 µM (inactive) | > 100 µM (inactive) | > 100 µM (inactive) | > 100 µM (inactive) | > 100 µM (inactive) | > 100 µM (inactive) | > 100 µM (inactive) | > 100 µM (inactive) | 70.5 µM (inactive) | > 100 µM (inactive) | > 100 µM (inactive) | > 100 µM (inactive) | > 100 µM (inactive)
CO/N=C1\CC(C)N2C(=O)C(C(C)C)NC(=O)C(NC(=O)c3c4nc5c(C(=O)NC6C(=O)NC(C(C)C)C(=O)N7C(C)CC(O)C7C(=O)N(C)CC(=O)N(C)C(C(C)C)C(=O)OC6C)ccc(C)c5oc-4c(C)c(=O)c3N)C(CO)OC(=O)C(C)N(C)C(=O)CN(C)C(=O)C12 (stereo not given) | 0.815 µM (active) | 4.54 µM (inactive) | 0.869 µM (active) | 0.321 µM (active) | 0.159 µM (active) | 0.656 µM (active) | 0.773 µM (active) | 1.05 µM (active) | 1.43 µM (inactive) | 0.617 µM (active) | 1.95 µM (inactive) | 1.13 µM (inactive) | 0.308 µM (active) | 0.174 µM (active) | 0.684 µM (active) | 0.883 µM (active) | 0.0184 µM (active) | 0.574 µM (active) | 0.65 µM (active) | 2.23 µM (inactive)
Oc1ccc(Cn2c(-c3ccc(O)c(O)c3)nc3ccccc32)cc1O | 18.2 µM (inactive) | 15.5 µM (inactive) | 13.9 µM (inactive) | 4.72 µM (inactive) | 10.8 µM (inactive) | 12.3 µM (inactive) | 15 µM (inactive) | 7.43 µM (inactive) | 23.3 µM (inactive) | 7.76 µM (inactive) | 22.1 µM (inactive) | 23.6 µM (inactive) | 18.4 µM (inactive) | 14.7 µM (inactive) | 9.2 µM (inactive) | 12.1 µM (inactive) | 3.72 µM (inactive) | 10.6 µM (inactive) | 33 µM (inactive) | 10.8 µM (inactive)
O=C(/C=C/c1cccs1)c1ccc([N+](=O)[O-])cc1 | > 100 µM (inactive) | > 100 µM (inactive) | > 100 µM (inactive) | 58.1 µM (inactive) | 66.1 µM (inactive) | > 100 µM (inactive) | > 100 µM (inactive) | 78.9 µM (inactive) | > 100 µM (inactive) | > 100 µM (inactive) | > 100 µM (inactive) | 90.8 µM (inactive) | > 100 µM (inactive) | > 100 µM (inactive) | 94.8 µM (inactive) | 77.8 µM (inactive) | 65.8 µM (inactive) | > 100 µM (inactive) | > 100 µM (inactive) | 26.9 µM (inactive)
